Assay results from patent US20230085307A1, “PYRIDAZINONE COMPOUND AND HERBICIDE” (NISSAN CHEMICAL CORPORATION, priority 2019, published 2023).

Tested on: oval-leafed pondweed
Test: Test Example 1: herbicidal activity, application before weed generation under submerged conditions (Table 16, symbol C)
Type: in vivo, oval-leafed pondweed (Monochoria vaginalis)
Settings: amount of applied herbicide 320 g/ha
In short: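 Submerged Wagner pots (alluvial soil, 4 cm water) sown with weed seeds and planted with 2.5-leaf rice seedlings; emulsifiable concentrate diluted in water applied to water surface on sowing day. Held in greenhouse at 25-30 °C; injury scored 0-5 by herbicidal rate after three weeks.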

SMILES | Herbicidal effect, C: oval-leafed pondweed
COc1ccc(-c2oc3ccc(C)cc3c2-c2c(O)c(C)nn(C)c2=O)cc1 [9-007] | 5 (Herbicidal rate of 90% or more (almost completely withered))
CCCC(=O)Oc1c(C)nn(C)c(=O)c1-c1c(-c2ccc(OC)cc2)oc2ccc(C)cc12 [9-008] | 5 (Herbicidal rate of 90% or more (almost completely withered))

Tested on: Japanese bulrush
Test: Test Example 2: herbicidal activity, application during weed generation under submerged conditions (Table 17, symbol B)
Type: in vivo, Japanese bulrush (Schoenoplectus juncoides)
Settings: AAH 320 g/ha; application during weed generation, submerged conditions
In short: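 Herbicide emulsion, diluted with water to the chosen amount, is applied onto 4 cm floodwater over alluvial soil where the weeds were co-sown and raised at 25–30° C. Application timing: 1–2 leaves. Assessment: three weeks afterwards.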

SMILES | herbicidal effect rating, B: Japanese bulrush
COc1ccc(-c2oc3ccc(C)cc3c2-c2c(O)c(C)nn(C)c2=O)cc1 [9-007] | 5 (Herbicidal rate of 90% or more (almost completely withered))
CCCC(=O)Oc1c(C)nn(C)c(=O)c1-c1c(-c2ccc(OC)cc2)oc2ccc(C)cc12 [9-008] | 5 (Herbicidal rate of 90% or more (almost completely withered))

Tested on: Chinese sprangletop
Test: Test Example 3: herbicidal effect by foliage application, Wagner pot (Table 18, symbol D)
Type: in vivo, chinese sprangletop (Leptochloa chinensis)
Settings: amount of applied herbicide 320 g/ha
In short: (§1)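 Plants were sown in alluvial soil held under 0.1–0.5 cm standing water and grown 14 days in a greenhouse at 25–30 °C. An emulsifiable formulation, water-diluted to the set dose, was then sprayed onto the foliage, and effects were scored three weeks later using previously defined criteria.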

SMILES | Herbicidal effect on D (Chinese sprangletop), foliage application
COc1ccc(-c2oc3ccc(C)cc3c2-c2c(O)c(C)nn(C)c2=O)cc1 [9-007] | 1 (Herbicidal rate of 5% or more and less than 20%)
CCCC(=O)Oc1c(C)nn(C)c(=O)c1-c1c(-c2ccc(OC)cc2)oc2ccc(C)cc12 [9-008] | 3 (Herbicidal rate of 40% or more and less than 70%)

Tested on: rice flat sedge
Test: Test Example 3: herbicidal effect by foliage application, Wagner pot (Table 18, symbol E)
Type: in vivo, rice flat sedge (Cyperus iria)
Settings: amount of applied herbicide 320 g/ha
In short: as §1

SMILES | Herbicidal effect on E (rice flat sedge), foliage application
COc1ccc(-c2oc3ccc(C)cc3c2-c2c(O)c(C)nn(C)c2=O)cc1 [9-007] | 5 (Herbicidal rate of 90% or more (almost completely withered))
CCCC(=O)Oc1c(C)nn(C)c(=O)c1-c1c(-c2ccc(OC)cc2)oc2ccc(C)cc12 [9-008] | 5 (Herbicidal rate of 90% or more (almost completely withered))

Tested on: green foxtail
Test: Test Example 4: herbicidal effect by soil treatment (Table 19, symbol G)
Type: in vivo, green foxtail (Setaria viridis)
Settings: amount of applied herbicide 320 g/ha
In short: (§2)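 Pre-emergence style soil spray: seeds under ~1.5 cm sterilized diluvial soil received a uniform coat of emulsion diluted to the predetermined herbicide amount. Greenhouse 25–30° C; readout at week three on previously defined criteria.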

SMILES | G: green foxtail, herbicidal effect grade
COc1ccc(-c2oc3ccc(C)cc3c2-c2c(O)c(C)nn(C)c2=O)cc1 [9-007] | 3 (Herbicidal rate of 40% or more and less than 70%)
CCCC(=O)Oc1c(C)nn(C)c(=O)c1-c1c(-c2ccc(OC)cc2)oc2ccc(C)cc12 [9-008] | 2 (Herbicidal rate of 20% or more and less than 40%)

Tested on: wild oat
Test: Test Example 4: herbicidal effect by soil treatment (Table 19, symbol I)
Type: in vivo, wild oat (Avena fatua)
Settings: amount of applied herbicide 320 g/ha
In short: as §2

SMILES | I: wild oat, herbicidal effect grade
COc1ccc(-c2oc3ccc(C)cc3c2-c2c(O)c(C)nn(C)c2=O)cc1 [9-007] | 1 (Herbicidal rate of 5% or more and less than 20%)
CCCC(=O)Oc1c(C)nn(C)c(=O)c1-c1c(-c2ccc(OC)cc2)oc2ccc(C)cc12 [9-008] | 0 (Herbicidal rate of 5% or less (almost no effect))

Tested on: Italian ryegrass
Test: Test Example 4: herbicidal effect by soil treatment (Table 19, symbol K)
Type: in vivo, Italian ryegrass (Lolium multiflorum)
Settings: amount of applied herbicide 320 g/ha
In short: as §2

SMILES | K: Italian ryegrass, herbicidal effect grade
COc1ccc(-c2oc3ccc(C)cc3c2-c2c(O)c(C)nn(C)c2=O)cc1 [9-007] | 5 (Herbicidal rate of 90% or more (almost completely withered))
CCCC(=O)Oc1c(C)nn(C)c(=O)c1-c1c(-c2ccc(OC)cc2)oc2ccc(C)cc12 [9-008] | 4 (Herbicidal rate of 70% or more and less than 90%)

Tested on: windgrass
Test: Test Example 4: herbicidal effect by soil treatment (Table 19, symbol L)
Type: in vivo, windgrass (Apera spica-venti)
Settings: amount of applied herbicide 320 g/ha
In short: as §2

SMILES | L: windgrass, herbicidal effect grade
COc1ccc(-c2oc3ccc(C)cc3c2-c2c(O)c(C)nn(C)c2=O)cc1 [9-007] | 0 (Herbicidal rate of 5% or less (almost no effect))
CCCC(=O)Oc1c(C)nn(C)c(=O)c1-c1c(-c2ccc(OC)cc2)oc2ccc(C)cc12 [9-008] | 0 (Herbicidal rate of 5% or less (almost no effect))

Tested on: velvetleaf
Test: Test Example 4: herbicidal effect by soil treatment (Table 19, symbol M)
Type: in vivo, velvetleaf (Abutilon theophrasti)
Settings: amount of applied herbicide 320 g/ha
In short: as §2

SMILES | M: velvetleaf, herbicidal effect grade
COc1ccc(-c2oc3ccc(C)cc3c2-c2c(O)c(C)nn(C)c2=O)cc1 [9-007] | 3 (Herbicidal rate of 40% or more and less than 70%)
CCCC(=O)Oc1c(C)nn(C)c(=O)c1-c1c(-c2ccc(OC)cc2)oc2ccc(C)cc12 [9-008] | 0 (Herbicidal rate of 5% or less (almost no effect))

Tested on: redroot pigweed
Test: Test Example 4: herbicidal effect by soil treatment (Table 19, symbol N)
Type: in vivo, redroot pigweed (Amaranthus retroflexus)
Settings: amount of applied herbicide 320 g/ha
In short: as §2

SMILES | N: redroot pigweed, herbicidal effect grade
COc1ccc(-c2oc3ccc(C)cc3c2-c2c(O)c(C)nn(C)c2=O)cc1 [9-007] | 5 (Herbicidal rate of 90% or more (almost completely withered))
CCCC(=O)Oc1c(C)nn(C)c(=O)c1-c1c(-c2ccc(OC)cc2)oc2ccc(C)cc12 [9-008] | 5 (Herbicidal rate of 90% or more (almost completely withered))

Tested on: lambsquarters
Test: Test Example 4: herbicidal effect by soil treatment (Table 19, symbol O)
Type: in vivo, lambsquarters (Chenopodium album)
Settings: amount of applied herbicide 320 g/ha
In short: as §2

SMILES | O: lambsquarters, herbicidal effect grade
COc1ccc(-c2oc3ccc(C)cc3c2-c2c(O)c(C)nn(C)c2=O)cc1 [9-007] | 4 (Herbicidal rate of 70% or more and less than 90%)
CCCC(=O)Oc1c(C)nn(C)c(=O)c1-c1c(-c2ccc(OC)cc2)oc2ccc(C)cc12 [9-008] | 4 (Herbicidal rate of 70% or more and less than 90%)

Tested on: persian speedwell
Test: Test Example 4: herbicidal effect by soil treatment (Table 19, symbol R)
Type: in vivo, Persian speedwell (Veronica persica)
Settings: amount of applied herbicide 320 g/ha
In short: as §2

SMILES | R: persian speedwell, herbicidal effect grade
COc1ccc(-c2oc3ccc(C)cc3c2-c2c(O)c(C)nn(C)c2=O)cc1 [9-007] | 5 (Herbicidal rate of 90% or more (almost completely withered))
CCCC(=O)Oc1c(C)nn(C)c(=O)c1-c1c(-c2ccc(OC)cc2)oc2ccc(C)cc12 [9-008] | 4 (Herbicidal rate of 70% or more and less than 90%)

Tested on: barnyard grass
Test: Test Example 5: herbicidal effect by foliage application, plastic box (Table 20, symbol H)
Type: in vivo, barnyard grass (Echinochloa crus-galli)
Settings: foliage application, 320 g/ha, three weeks after application
In short: (§3)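 Plants were sown into sterilized diluvial soil under about 1.5 cm cover and kept in a greenhouse at 25° C. to 30° C. Fourteen days on, foliage received an even spray of the diluted emulsion. Herbicidal or crop effect was judged three weeks afterwards.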

SMILES | herbicidal effect on barnyard grass (H)
COc1ccc(-c2oc3ccc(C)cc3c2-c2c(O)c(C)nn(C)c2=O)cc1 [9-007] | 4 (Herbicidal rate of 70% or more and less than 90%)
CCCC(=O)Oc1c(C)nn(C)c(=O)c1-c1c(-c2ccc(OC)cc2)oc2ccc(C)cc12 [9-008] | 3 (Herbicidal rate of 40% or more and less than 70%)

Tested on: blackgrass
Test: Test Example 5: herbicidal effect by foliage application, plastic box (Table 20, symbol J)
Type: in vivo, blackgrass (Alopecurus myosuroides)
Settings: foliage application, 320 g/ha, three weeks after application
In short: as §3

SMILES | herbicidal effect on blackgrass (J)
COc1ccc(-c2oc3ccc(C)cc3c2-c2c(O)c(C)nn(C)c2=O)cc1 [9-007] | 4 (Herbicidal rate of 70% or more and less than 90%)
CCCC(=O)Oc1c(C)nn(C)c(=O)c1-c1c(-c2ccc(OC)cc2)oc2ccc(C)cc12 [9-008] | 1 (Herbicidal rate of 5% or more and less than 20%)

Tested on: Italian ryegrass
Test: Test Example 5: herbicidal effect by foliage application, plastic box (Table 20, symbol K)
Type: in vivo, Italian ryegrass (Lolium multiflorum)
Settings: foliage application, 320 g/ha, three weeks after application
In short: as §3

SMILES | herbicidal effect on Italian ryegrass (K)
COc1ccc(-c2oc3ccc(C)cc3c2-c2c(O)c(C)nn(C)c2=O)cc1 [9-007] | 5 (Herbicidal rate of 90% or more (almost completely withered))
CCCC(=O)Oc1c(C)nn(C)c(=O)c1-c1c(-c2ccc(OC)cc2)oc2ccc(C)cc12 [9-008] | 5 (Herbicidal rate of 90% or more (almost completely withered))

Tested on: velvetleaf
Test: Test Example 5: herbicidal effect by foliage application, plastic box (Table 20, symbol M)
Type: in vivo, velvetleaf (Abutilon theophrasti)
Settings: foliage application, 320 g/ha, three weeks after application
In short: as §3

SMILES | herbicidal effect on velvetleaf (M)
COc1ccc(-c2oc3ccc(C)cc3c2-c2c(O)c(C)nn(C)c2=O)cc1 [9-007] | 5 (Herbicidal rate of 90% or more (almost completely withered))
CCCC(=O)Oc1c(C)nn(C)c(=O)c1-c1c(-c2ccc(OC)cc2)oc2ccc(C)cc12 [9-008] | 5 (Herbicidal rate of 90% or more (almost completely withered))
